Eleven molecules from patent US12617762B2, “Carboxy derivatives with antiinflamatory properties” (Sitryx Therapeutics Limited, priority 2019, dated 2026) can be followed below.

Each structure is given as a SMILES string. Where a name gives a salt, the structure may show the parent alone. Read-outs that look alike come from different tables or passages of the source.

Data set [1] relates to IL-1β cytokine output from THP-1s. The data set can be described thus: THP-1 AlphaLISA IL-1β cytokine inhibition assay. It counts as cell-based. The settings on record: Homo sapiens. The method, boiled down:
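THP-1 cells differentiated with PMA for 72 h, pre-incubated with compound 30 min, then LPS-primed 24 h and Nigericin-stimulated 1 h (37° C./5% CO2). Supernatant IL-1β measured by AlphaLISA; percentage inhibition normalised to +LPS (high) and −LPS (low) plate controls.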
(In general: In Alpha technology, singlet oxygen from a donor bead excites a nearby acceptor bead.)

The test system of data set [2] is IL-6 cytokine output from THP-1s. Kind of data set: THP-1 AlphaLISA IL-6 cytokine inhibition assay. It counts as cell-based. The settings on record: Homo sapiens. The method, boiled down:
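THP-1 cells differentiated with PMA for 72 h, then pre-incubated with compound 30 min, stimulated with LPS 24 h, then Nigericin 1 h, all at 37° C. Supernatant IL-6 measured by AlphaLISA. Percentage inhibition normalized to +/− LPS plate controls.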

The subject of data set [3] is NRF2 (nuclear factor erythroid 2-related factor 2). Kind of data set: NRF2 +/-GSH activation assay (DiscoverX PathHunter NRF2 translocation kit, U2OS cells). It is filed as cell-based. The method, boiled down: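 U2OS PathHunter eXpress cells, 24 h post-plating, treated with compound ±GSH (+GSH arm: 30 min compound–GSH pre-incubation, 6 mM working GSH), then 6 h at 37 °C. NRF2 nuclear translocation read by enzyme-fragment-complementation chemiluminescence; % activation normalised to DMF high and untreated low controls.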

Data set [4] can be described thus: Hepatocyte stability assay, mouse. It is filed as in vitro ADME. The settings on record: mouse, hepatocytes; for hepatocyte CLint at 10 μM: Hepatocyte stability Clint; for half-life at 10 μM: Hepatocyte stability T½. The method, boiled down: (§1)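 Cryopreserved hepatocytes (viability >70%), 0.5×10^6 cells/mL in Leibovitz buffer, preincubated 10 min at 37° C, then 10 μM compound (0.1% DMSO) in duplicate; sampled 0-60 min, acetonitrile quench, LC-MS/MS. CLint and half-life from ln % remaining vs time; buffer-only incubation as negative control.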

Data set [5] is described as follows: Hepatocyte stability assay, human. The settings on record: human, hepatocytes; for hepatocyte CLint at 10 μM: Hepatocyte stability Clint; for half-life at 10 μM: Hepatocyte stability T½. It is filed as in vitro ADME. The gist of the method:
as §1

Setting [6] is: THP-1, differentiated THP-1 cells, LPS then nigericin.
Setting [7] is: +GSH, 30 minute compound-GSH pre-incubation, read-out: NRF2 activation +GSH EC50.
Setting [8] is: +GSH, normalised to DMF high control.
Where [9] appears, read: −GSH, U2OS PathHunter cells, 6 hours compound treatment, read-out: NRF2 activation −GSH EC50.
[10] abbreviates: −GSH, normalised to DMF high control.
[11] abbreviates: THP-1, differentiated THP-1 cells, data from repeated experiments.

As a reminder, the IC50 is the concentration that gives 50% inhibition. The low end stands for greater potency, the high end for weaker potency. Usually EC50 stands for the concentration needed to bring the measured effect to its halfway point. Usually hepatocyte CLint stands for the rate of metabolic loss divided by the concentration. One may read the half-life as the time needed for the level to fall by half in the phase considered. As for `C=C(Cc1nc(-c2ccc(C(F)(F)CCCC)cc2)no1)C(=O)O` [Example 79, 2-((3-(4-(1,1-difluoropentyl)phenyl)-1,2,4-oxadiazol-5-yl)methyl)acrylic acid], the values for the IC50 in data set [1] (setting [6]) and in data set [2] (setting [6]) were 6.7 µM and 2.2 µM, respectively. In addition, the EC50 came to 2.1 µM in data set [3] (setting [7]) and 1.8 µM in data set [3] (setting [9]). For the same molecule, the “NRF2 activation +GSH Emax” value in data set [3] (setting [8]) turned out to be 181%. Further, in data set [3] (setting [10]), the “NRF2 activation −GSH Emax” value was found to be 271%. Besides, the hepatocyte CLint at 10 μM is over 460 µL/min/1e6 cells in data set [4] and 147 µL/min/1e6 cells in data set [5]. The half-life at 10 μM in data set [4] was under 3 min; in data set [5], 11 min.

For `C=C(Cc1nc([C@@H](C)CCCCCC)no1)C(=O)O` [Example 43, (S)-2-((3-(octan-2-yl)-1,2,4-oxadiazol-5-yl)methyl)acrylic acid], the IC50 in data set [1] (setting [6]) is 36.9 µM; in data set [2] (setting [6]) it was 23.1 µM. The EC50 in data set [3] (setting [7]) stood at 27.4 µM; in data set [3] (setting [9]), 30.4 µM. Further, in data set [3] (setting [8]), the “NRF2 activation +GSH Emax” value was found to be 81%. The “NRF2 activation −GSH Emax” value in data set [3] (setting [10]) was found to be 166%. Moreover, the results for the hepatocyte CLint at 10 μM in data set [4] and in data set [5] were 142 µL/min/1e6 cells and 33 µL/min/1e6 cells, respectively. For the same molecule, the half-life at 10 μM in data set [4] came out at 12 min; in data set [5] it was 42 min.

For the molecule `C=C(Cc1noc(CCCCCCCC)n1)C(=O)O` [Example 3, 2-((5-octyl-1,2,4-oxadiazol-3-yl)methyl)acrylic acid], the IC50 in data set [1] (setting [6]) came out at 14.6 µM; in data set [2] (setting [6]), 4.4 µM. Besides, the EC50 in data set [3] (setting [7]) amounted to 6.9 µM; in data set [3] (setting [9]), 3.7 µM. The “NRF2 activation +GSH Emax” value in data set [3] (setting [8]) came out at 199%. In data set [3] (setting [10]), the “NRF2 activation −GSH Emax” value was found to be 218%. Moreover, the hepatocyte CLint at 10 μM in data set [4] came out at 117 µL/min/1e6 cells; in data set [5], 110 µL/min/1e6 cells. Moreover, the half-life at 10 μM in data set [4] came out at 12 min; in data set [5], 15 min.

In the case of `C=C(C(=O)O)C(O)c1nc(CCCCCCCC)no1` (stereo not drawn) [Example 108, 2-(hydroxy(3-octyl-1,2,4-oxadiazol-5-yl)methyl)acrylic acid], the IC50 in data set [1] (setting [6]) is 18.4 µM; in data set [2] (setting [6]), 8.3 µM. Also, the EC50 in data set [3] (setting [7]) worked out at 29 µM; in data set [3] (setting [9]), 19.7 µM. Further, the “NRF2 activation +GSH Emax” value in data set [3] (setting [8]) was 213%. Besides, the “NRF2 activation −GSH Emax” value in data set [3] (setting [10]) was found to be 299%. The intrinsic clearance (hepatocyte CLint) at 10 μM in data set [4] worked out at 438 µL/min/1e6 cells; in data set [5] it was 10 µL/min/1e6 cells. The half-life at 10 μM in data set [4] worked out at 4 min; in data set [5], 163 min.

For the molecule `C=C(Cc1nc(C2(c3ccc(C(F)(F)F)cc3)CC2)no1)C(=O)O` [Example 22, 2-((3-(1-(4-(trifluoromethyl)phenyl)cyclopropyl)-1,2,4-oxadiazol-5-yl)methyl)acrylic acid], the IC50 in data set [1] (setting [6]) amounted to 10.9 µM; in data set [1] (setting [11]), 8.7 µM; in data set [2] (setting [11]), 43.5 µM. Besides, the results for the EC50 in data set [3] (setting [7]) and in data set [3] (setting [9]) were 60.2 µM and 48.7 µM, respectively. Further, the “NRF2 activation +GSH Emax” value in data set [3] (setting [8]) was 62%. Also, in data set [3] (setting [10]), the “NRF2 activation −GSH Emax” value turned out to be 69%. The hepatocyte CLint at 10 μM was 42 µL/min/1e6 cells in data set [4] and 20 µL/min/1e6 cells in data set [5]. The figures for the half-life at 10 μM in data set [4] and in data set [5] were 41 min and 84 min, respectively.

With `C=C(Cc1ccc(CCCCCCCC)cn1)C(=O)O` [Example 105], the IC50 turned out to be 4.2 µM in data set [1] (setting [6]) and 2 µM in data set [2] (differentiated THP-1 cells, LPS then nigericin). Further, the EC50 in data set [3] (setting [7]) and in data set [3] (setting [9]) was 5.3 µM in each case. Also, the “NRF2 activation +GSH Emax” value in data set [3] (setting [8]) was found to be 166%. Moreover, in data set [3] (setting [10]), the “NRF2 activation −GSH Emax” value was determined as 257%. Also, the hepatocyte CLint at 10 μM in data set [4] and in data set [5] was over 460 µL/min/1e6 cells throughout. In addition, the half-life at 10 μM in data set [4] and in data set [5] was under 3 min each time.

Turning to `C=C(Cc1cc(CCCCCCCC)ccn1)C(=O)O` [Example 104, 2-((4-octylpyridin-2-yl)methyl)acrylic acid trifluoroacetic acid salt], the IC50 came out at 11.6 µM in data set [1] (setting [6]) and 2.1 µM in data set [2] (setting [6]). The EC50 in data set [3] (setting [7]) stood at 8.2 µM; in data set [3] (setting [9]), 7.5 µM. Further, in data set [3] (setting [8]), the “NRF2 activation +GSH Emax” value stood at 216%. In addition, the “NRF2 activation −GSH Emax” value in data set [3] (setting [10]) is on record as 293%. Besides, the hepatocyte CLint at 10 μM in data set [4] was over 460 µL/min/1e6 cells; in data set [5], 370 µL/min/1e6 cells. Also, the half-life at 10 μM in data set [4] is under 3 min; in data set [5], 3 min.

Take `C=C(Cc1nc(C2(c3ccc(Cl)cc3)CC2)no1)C(=O)O` [Example 10, 2-((3-(1-(4-chlorophenyl)cyclopropyl)-1,2,4-oxadiazol-5-yl)methyl)acrylic acid]: the results for the IC50 in data set [1] (setting [6]) and in data set [2] (setting [6]) were 10 µM and 26.2 µM, respectively. In addition, the concentration giving a half-maximal response (EC50) stood at 45.2 µM in data set [3] (setting [7]) and 36.8 µM in data set [3] (setting [9]). Further, in data set [3] (setting [8]), the “NRF2 activation +GSH Emax” value came out at 53%. The “NRF2 activation −GSH Emax” value in data set [3] (setting [10]) is recorded as 67%. Moreover, the figures for the hepatocyte CLint at 10 μM in data set [4] and in data set [5] were 125 µL/min/1e6 cells and 27 µL/min/1e6 cells, respectively. For the same molecule, the results for the half-life at 10 μM in data set [4] and in data set [5] were 8 min and 47 min, respectively.

For `C=C(Cc1nc(Cc2ccc(-c3ccc(Cl)cc3)cc2)no1)C(=O)O` [Example 19, 2-((3-((4′-chloro-[1,1′-biphenyl]-4-yl)methyl)-1,2,4-oxadiazol-5-yl)methyl)acrylic acid], the values for the IC50 in data set [1] (setting [6]) and in data set [2] (setting [6]) were 77 µM and 3.3 µM, respectively. The EC50 was found to be 7.4 µM in data set [3] (setting [7]) and 2.5 µM in data set [3] (setting [9]). In addition, the “NRF2 activation +GSH Emax” value in data set [3] (setting [8]) was 140%. The “NRF2 activation −GSH Emax” value in data set [3] (setting [10]) was 206%. Besides, the hepatocyte CLint at 10 μM is over 460 µL/min/1e6 cells in data set [4] and 63 µL/min/1e6 cells in data set [5]. The values for the half-life at 10 μM in data set [4] and in data set [5] were under 3 min and 20 min, respectively.

With `C=C(Cc1nc(CCCCCCCCC(F)(F)F)no1)C(=O)O` [Example 60, 2-((3-(9,9,9-trifluorononyl)-1,2,4-oxadiazol-5-yl)methyl)acrylic acid], the IC50 was found to be 11.2 µM in data set [1] (setting [6]) and 6 µM in data set [2] (setting [6]). Also, the figures for the EC50 in data set [3] (setting [7]) and in data set [3] (setting [9]) were 9 µM and 8.4 µM, respectively. Moreover, in data set [3] (setting [8]), the “NRF2 activation +GSH Emax” value is 110%. The “NRF2 activation −GSH Emax” value in data set [3] (setting [10]) is given as 195%. Also, the hepatocyte CLint at 10 μM in data set [4] was found to be 257 µL/min/1e6 cells; in data set [5], 137 µL/min/1e6 cells. Moreover, the half-life at 10 μM in data set [4] was found to be 6 min; in data set [5], 11 min.

Consider `C=C(Cc1nc(C2(c3ccc(Br)cc3)CC2)no1)C(=O)O` [Example 50, 2-((3-(1-(4-bromophenyl)cyclopropyl)-1,2,4-oxadiazol-5-yl)methyl)acrylic acid], for which the 50% inhibitory concentration (IC50) in data set [1] (THP-1, Table 3, head to head comparison of exo vs endo double bond compounds) worked out at 4.5 µM; in data set [1] (setting [6]), 4.5 µM; in data set [2] (setting [6]), 20.3 µM. Besides, the EC50 in data set [3] (setting [7]) was found to be 39.2 µM; in data set [3] (−GSH, Table 5 exo vs endo comparison, read-out: −GSH EC50) it was 35.9 µM; in data set [3] (setting [9]), 35.9 µM. The “NRF2 activation +GSH Emax” value in data set [3] (setting [8]) was determined as 88%. In data set [3] (setting [10]), the “NRF2 activation −GSH Emax” value amounted to 150%. Further, the “−GSH Emax” value in data set [3] (−GSH, normalised to DMF high control, Table 5 exo vs endo comparison) was found to be 150%. Moreover, the hepatocyte CLint at 10 μM was determined as 146 µL/min/1e6 cells in data set [4] and 25 µL/min/1e6 cells in data set [5]. Moreover, the half-life at 10 μM in data set [4] was 9 min; in data set [5], 53 min.
